From PubChem BioAssay (NCI) come the findings set out here.

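Tested at 5 concentrations; 48 h exposure; 96-well plates; endpoints linearly interpolated, else capped at highest concentration. TGI is the concentration that stops growth completely.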 Some results are limits rather than exact numbers.

The subject of the first experiment is A498 renal. Kind of experiment: NCI-60 cell line screen, 48 h.
With `COC1=C(OC)C(=O)C(Cc2c(Cl)nc3sc(C)cn23)=C(C)C1=O`, the TGI amounted to 65.5 µM.

In turn, `C=CCOc1cccc(C2(O)c3ccccc3C3=NCCCN32)c1` (stereo not given) showed a TGI of 53.2 µM.

For the compound `COC(=O)C1(C(=O)OC)Cc2ccc(OC)cc2C2=C1C(=O)c1ccccc1C2=O`, the TGI was found to be 41.8 µM.

`Cc1nc2ccccc2n1COC(Cn1ccnc1)c1ccc(Cl)cc1Cl` (stereo not given) yielded a TGI greater than 100 µM.

For `COC(=O)C1(CCC(C)=O)CCCCCC1=O` (stereo not given), the TGI was greater than 100 µM.

In the case of `NC(N)=N/N=C/c1c(-c2ccc(Cl)cc2)nc2sccn12`, the TGI is 13.2 µM.

Another experiment concerns A549 NSCLC. The experiment in a line: NCI-60 cell line screen, 48 h.
Compound `COC1=C(OC)C(=O)C(Cc2c(Cl)nc3sc(C)cn23)=C(C)C1=O` returned a TGI of 41.8 µM.

In the case of `C=CCOc1cccc(C2(O)c3ccccc3C3=NCCCN32)c1` (stereo not given), the TGI is greater than 39.4 µM.

Regarding `COC(=O)C1(C(=O)OC)Cc2ccc(OC)cc2C2=C1C(=O)c1ccccc1C2=O`, the TGI worked out at 30.9 µM.

With `Cc1nc2ccccc2n1COC(Cn1ccnc1)c1ccc(Cl)cc1Cl` (stereo not given), the TGI was greater than 100 µM.

For `COC(=O)C1(CCC(C)=O)CCCCCC1=O` (stereo not given), the TGI is greater than 100 µM.

Regarding `NC(N)=N/N=C/c1c(-c2ccc(Cl)cc2)nc2sccn12`, the TGI amounted to 3.15 µM.

In a further experiment the test system is COLO 205 colon. The experiment in a line: NCI-60 cell line screen, 48 h.
`COC1=C(OC)C(=O)C(Cc2c(Cl)nc3sc(C)cn23)=C(C)C1=O` yielded a TGI of 34.7 µM.

In turn, `C=CCOc1cccc(C2(O)c3ccccc3C3=NCCCN32)c1` (stereo not given) gave a TGI of 33.5 µM.

The compound `COC(=O)C1(C(=O)OC)Cc2ccc(OC)cc2C2=C1C(=O)c1ccccc1C2=O` had a TGI of 40.5 µM.

Compound `Cc1nc2ccccc2n1COC(Cn1ccnc1)c1ccc(Cl)cc1Cl` (stereo not given) displayed a TGI greater than 100 µM.

In turn, `COC(=O)C1(CCC(C)=O)CCCCCC1=O` (stereo not given) registered a TGI greater than 100 µM.

In turn, `NC(N)=N/N=C/c1c(-c2ccc(Cl)cc2)nc2sccn12` yielded a TGI of 2.87 µM.

Another experiment has as its system DU-145 prostate. Kind of experiment: NCI-60 cell line screen, 48 h.
`COC1=C(OC)C(=O)C(Cc2c(Cl)nc3sc(C)cn23)=C(C)C1=O` registered a TGI of 61 µM.

`C=CCOc1cccc(C2(O)c3ccccc3C3=NCCCN32)c1` (stereo not given) returned a TGI greater than 100 µM.

Take `COC(=O)C1(C(=O)OC)Cc2ccc(OC)cc2C2=C1C(=O)c1ccccc1C2=O`: the TGI was 30.3 µM.

For the compound `Cc1nc2ccccc2n1COC(Cn1ccnc1)c1ccc(Cl)cc1Cl` (stereo not given), the TGI is greater than 100 µM.

In the case of `COC(=O)C1(CCC(C)=O)CCCCCC1=O` (stereo not given), the TGI was greater than 100 µM.

Regarding `NC(N)=N/N=C/c1c(-c2ccc(Cl)cc2)nc2sccn12`, the TGI came to 13.1 µM.

A further experiment concerns EKVX NSCLC. Kind of experiment: NCI-60 cell line screen, 48 h.
As to `COC1=C(OC)C(=O)C(Cc2c(Cl)nc3sc(C)cn23)=C(C)C1=O`, the TGI was found to be 35.6 µM.

For the compound `C=CCOc1cccc(C2(O)c3ccccc3C3=NCCCN32)c1` (stereo not given), the TGI is greater than 35.1 µM.

For `COC(=O)C1(C(=O)OC)Cc2ccc(OC)cc2C2=C1C(=O)c1ccccc1C2=O`, the TGI is 19.1 µM.

Regarding `Cc1nc2ccccc2n1COC(Cn1ccnc1)c1ccc(Cl)cc1Cl` (stereo not given), the TGI is greater than 100 µM.

`COC(=O)C1(CCC(C)=O)CCCCCC1=O` (stereo not given): the TGI was greater than 100 µM.

In turn, `NC(N)=N/N=C/c1c(-c2ccc(Cl)cc2)nc2sccn12` displayed a TGI of 31.2 µM.

The next experiment concerns HCT-116 colon. Kind of experiment: NCI-60 cell line screen, 48 h.
Compound `COC1=C(OC)C(=O)C(Cc2c(Cl)nc3sc(C)cn23)=C(C)C1=O` had a TGI of 55.9 µM.

Compound `C=CCOc1cccc(C2(O)c3ccccc3C3=NCCCN32)c1` (stereo not given) yielded a TGI of 29.6 µM.

Take `COC(=O)C1(C(=O)OC)Cc2ccc(OC)cc2C2=C1C(=O)c1ccccc1C2=O`: the TGI worked out at 10.9 µM.

Compound `Cc1nc2ccccc2n1COC(Cn1ccnc1)c1ccc(Cl)cc1Cl` (stereo not given) showed a TGI greater than 100 µM.

As for `COC(=O)C1(CCC(C)=O)CCCCCC1=O` (stereo not given), the TGI is greater than 100 µM.

Take `NC(N)=N/N=C/c1c(-c2ccc(Cl)cc2)nc2sccn12`: the TGI turned out to be 2.95 µM.

The subject of another experiment is HCT-15 colon. Kind of experiment: NCI-60 cell line screen, 48 h.
Regarding `COC1=C(OC)C(=O)C(Cc2c(Cl)nc3sc(C)cn23)=C(C)C1=O`, the TGI is 67.9 µM.

Regarding `C=CCOc1cccc(C2(O)c3ccccc3C3=NCCCN32)c1` (stereo not given), the TGI is greater than 50 µM.

Compound `COC(=O)C1(C(=O)OC)Cc2ccc(OC)cc2C2=C1C(=O)c1ccccc1C2=O` had a TGI of 25.2 µM.

`Cc1nc2ccccc2n1COC(Cn1ccnc1)c1ccc(Cl)cc1Cl` (stereo not given) showed a TGI greater than 100 µM.

In turn, `COC(=O)C1(CCC(C)=O)CCCCCC1=O` (stereo not given) returned a TGI greater than 100 µM.

On to `NC(N)=N/N=C/c1c(-c2ccc(Cl)cc2)nc2sccn12`, for which the TGI came to 6.36 µM.

The subject of the next experiment is HL-60(TB) leukemia. The experiment in a line: NCI-60 cell line screen, 48 h.
In turn, `C=CCOc1cccc(C2(O)c3ccccc3C3=NCCCN32)c1` (stereo not given) had a TGI greater than 35.6 µM.

Compound `COC(=O)C1(C(=O)OC)Cc2ccc(OC)cc2C2=C1C(=O)c1ccccc1C2=O` gave a TGI greater than 21.1 µM.

Compound `Cc1nc2ccccc2n1COC(Cn1ccnc1)c1ccc(Cl)cc1Cl` (stereo not given) gave a TGI of 85.4 µM.

Another experiment deals with HOP-62 NSCLC. Kind of experiment: NCI-60 cell line screen, 48 h.
`COC1=C(OC)C(=O)C(Cc2c(Cl)nc3sc(C)cn23)=C(C)C1=O` showed a TGI of 36 µM.

`C=CCOc1cccc(C2(O)c3ccccc3C3=NCCCN32)c1` (stereo not given) showed a TGI of 38.8 µM.

Take `COC(=O)C1(C(=O)OC)Cc2ccc(OC)cc2C2=C1C(=O)c1ccccc1C2=O`: the TGI was determined as 21.4 µM.

As for `Cc1nc2ccccc2n1COC(Cn1ccnc1)c1ccc(Cl)cc1Cl` (stereo not given), the TGI was greater than 100 µM.

Compound `COC(=O)C1(CCC(C)=O)CCCCCC1=O` (stereo not given) registered a TGI greater than 100 µM.

In turn, `NC(N)=N/N=C/c1c(-c2ccc(Cl)cc2)nc2sccn12` showed a TGI of 3.56 µM.

For another experiment, the system named is HOP-92 NSCLC. The experiment in a line: NCI-60 cell line screen, 48 h.
`C=CCOc1cccc(C2(O)c3ccccc3C3=NCCCN32)c1` (stereo not given) gave a TGI greater than 82.6 µM.

For the compound `COC(=O)C1(C(=O)OC)Cc2ccc(OC)cc2C2=C1C(=O)c1ccccc1C2=O`, the TGI was found to be 15.9 µM.

Take `Cc1nc2ccccc2n1COC(Cn1ccnc1)c1ccc(Cl)cc1Cl` (stereo not given): the TGI was 77.6 µM.

Compound `COC(=O)C1(CCC(C)=O)CCCCCC1=O` (stereo not given) showed a TGI greater than 100 µM.
